From patent US20240018161A1, “MODULATORS OF CYSTIC FIBROSIS TRANSMEMBRANE CONDUCTANCE REGULATOR” (VERTEX PHARMACEUTICALS INCORPORATED, priority 2020, published 2024)
Read-outs that look alike come from different tables or passages of the source.

What was measured:
[1] = 13-membered ring, DMF
[2] = target: CFTR-mediated chloride transport in human intestinal epithelial enteroid cells (Homo sapiens, UniProt P13569); experiment: Membrane potential dye, Enteroid Assay A; type: cell-based; conditions: for EC50: read-out: Ent. A EC50
Chain of CFTR-mediated chloride transport in human intestinal epithelial enteroid cells (P13569 with tags, fused parts or gaps DEL508-508): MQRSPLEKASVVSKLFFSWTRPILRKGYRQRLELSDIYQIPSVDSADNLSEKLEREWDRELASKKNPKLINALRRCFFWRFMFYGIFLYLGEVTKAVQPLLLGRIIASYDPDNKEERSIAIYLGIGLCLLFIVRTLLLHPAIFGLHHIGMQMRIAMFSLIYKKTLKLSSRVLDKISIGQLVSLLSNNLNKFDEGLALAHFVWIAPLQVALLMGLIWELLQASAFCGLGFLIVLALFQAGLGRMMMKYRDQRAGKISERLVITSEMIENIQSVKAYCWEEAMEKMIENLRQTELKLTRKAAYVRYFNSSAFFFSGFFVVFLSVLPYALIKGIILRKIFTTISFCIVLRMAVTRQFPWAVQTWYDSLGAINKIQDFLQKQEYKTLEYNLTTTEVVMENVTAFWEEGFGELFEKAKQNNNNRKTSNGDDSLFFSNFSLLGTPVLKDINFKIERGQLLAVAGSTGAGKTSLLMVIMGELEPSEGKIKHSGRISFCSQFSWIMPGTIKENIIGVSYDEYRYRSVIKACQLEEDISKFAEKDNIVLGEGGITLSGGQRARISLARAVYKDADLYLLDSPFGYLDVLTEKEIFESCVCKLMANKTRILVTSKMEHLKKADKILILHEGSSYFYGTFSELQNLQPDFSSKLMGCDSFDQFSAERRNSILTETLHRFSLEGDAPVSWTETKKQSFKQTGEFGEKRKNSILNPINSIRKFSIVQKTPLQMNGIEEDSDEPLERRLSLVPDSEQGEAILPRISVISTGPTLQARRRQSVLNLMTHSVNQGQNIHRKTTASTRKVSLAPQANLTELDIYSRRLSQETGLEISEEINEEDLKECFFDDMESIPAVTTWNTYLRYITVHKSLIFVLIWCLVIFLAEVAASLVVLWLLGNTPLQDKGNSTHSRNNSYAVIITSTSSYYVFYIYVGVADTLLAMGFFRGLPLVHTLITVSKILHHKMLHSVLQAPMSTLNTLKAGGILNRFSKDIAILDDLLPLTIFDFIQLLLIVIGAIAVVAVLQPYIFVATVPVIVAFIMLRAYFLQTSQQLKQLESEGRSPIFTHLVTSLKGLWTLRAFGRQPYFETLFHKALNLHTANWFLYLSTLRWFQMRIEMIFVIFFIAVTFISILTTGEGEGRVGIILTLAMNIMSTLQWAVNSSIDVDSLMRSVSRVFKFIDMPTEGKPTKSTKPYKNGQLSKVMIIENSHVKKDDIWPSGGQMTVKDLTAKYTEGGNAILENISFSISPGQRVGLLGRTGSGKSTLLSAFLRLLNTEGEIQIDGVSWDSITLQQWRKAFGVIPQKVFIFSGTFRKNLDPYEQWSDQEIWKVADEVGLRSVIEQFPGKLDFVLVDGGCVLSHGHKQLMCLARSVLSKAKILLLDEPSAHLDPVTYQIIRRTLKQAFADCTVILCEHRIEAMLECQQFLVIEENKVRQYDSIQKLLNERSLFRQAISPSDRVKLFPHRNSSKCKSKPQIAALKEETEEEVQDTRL
How it was run: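 Membrane potential dye (20 μM methyl oxonol, with 30 μM CaCCinh-A01 and 30 μM Chicago Sky Blue) loaded 25 min at room temperature into ROCK-inhibitor-seeded human enteroid cells. Chloride-free stimulation buffer triggered transport, followed by 15 min fluorescence. % Activity relative to 3 μM/3 μM/300 nM triple-combination control.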

Compound: Cc1cccc(C)c1-c1cc2nc(n1)NS(=O)(=O)c1cccc(c1)C(=O)N1CCN(C(=O)OC(C)(C)C)CC1CO2 (centres unmarked)
- ring closure, isolated yield ([1]; from Cc1cccc(C)c1-c1cc(OCC2CN(C(=O)OC(C)(C)C)CCN2)nc(NS(=O)(=O)c2cccc(C(=O)O)c2)n1, amide bond, HATU/DIEA, 13.8 mM, 25.0 °C, 2.0 h, 2 steps): 81%

Compound: Cc1cccc(C)c1-c1cc2nc(n1)NS(=O)(=O)c1cccc(c1)C(=O)N1CCN(C(=O)OCc3ccccc3)CC(O2)[C@H]1C (single isomer, unassigned; diastereomer 1)
- ring closure, isolated yield ([1]; from Cc1cccc(C)c1-c1cc(Cl)nc(NS(=O)(=O)c2cccc(C(=O)N3CCN(C(=O)OCc4ccccc4)CC(O)[C@H]3C)c2)n1, snar bond, NaH, 29.4 mM, 0.0 °C, 1.25 h): 17%

Compound: Cc1cccc(C)c1-c1cc2nc(n1)NS(=O)(=O)c1cccc(c1)C(=O)N1C(c3ncc(OC(C)C)cn3)CCCC(O2)[C@H]1CC(C)C (single isomer, unassigned; isomer 1)
- ring closure, isolated yield ([1]; from Cc1cccc(C)c1-c1cc(OC2CCCC(c3ncc(OC(C)C)cn3)N[C@@H]2CC(C)C)nc(NS(=O)(=O)c2cccc(C(=O)O)c2)n1, amide bond, CDMT/NMM, 16.3 mM, 24.0 h): 23%

Compound: Cc1cccc(C)c1-c1cc2nc(n1)NS(=O)(=O)c1cccc(c1)C(=O)N1C(c3ncc(OC(C)C)cn3)CCCC(O2)[C@H]1CC(C)C (single isomer, unassigned; isomer 2)
- ring closure, isolated yield ([1]; from Cc1cccc(C)c1-c1cc(OC2CCCC(c3ncc(OC(C)C)cn3)N[C@@H]2CC(C)C)nc(NS(=O)(=O)c2cccc(C(=O)O)c2)n1, amide bond, CDMT/NMM, 7.3 mM, 60.0 h): 27%

Compound: Cc1cccc(C)c1-c1cc2nc(n1)NS(=O)(=O)c1cccc(c1)C(=O)N1C(c3ncc(OC(C)C)cn3)CCCC(CC(C)C)C1CO2 (single isomer, unassigned; isomer a)
- ring closure, isolated yield ([1]; from Cc1cccc(C)c1-c1cc(OCC2NC(c3ncc(OC(C)C)cn3)CCCC2CC(C)C)nc(NS(=O)(=O)c2cccc(C(=O)O)c2)n1, amide bond, CDMT/NMM, 16.2 mM, 40.0 h, 2 steps): 35%

Compound: Cc1cccc(C)c1-c1cc2nc(n1)NS(=O)(=O)c1cccc(c1)C(=O)N1CCN(C(=O)OC(C)(C)C)CC(C1)O2 (centres unmarked) [Compound 43, tert-Butyl 12-(2,6-dimethylphenyl)-2,8,8-trioxo-15-oxa-8λ^6-thia-1,9,11,18,22-pentaazatetracyclo[14.4.1.13,7.110,14]tricosa-3(23),4,6,10(22),11,13-hexaene-18-carboxylate]
- ring closure, isolated yield ([1]; from Cc1cccc(C)c1-c1cc(Cl)nc(NS(=O)(=O)c2cccc(C(=O)N3CCN(C(=O)OC(C)(C)C)CC(O)C3)c2)n1, snar bond, NaH, 15.5 mM, 25.0 °C, 16.0 h): 56%
- EC50 ([2]; enteroid cells incubated with test compound 18-24 hours, acute 10 μM forskolin and 300 nM N-[2,4-bis(1,1-dimethylethyl)-5-hydroxyphenyl]-1,4-dihydro-4-oxoquinoline-3-carboxamide): < 1000 nM
- Ent. A Max Activity (%) ([2]; percentage of chloride transport of triple combination control (3 μM N-[(6-amino-2-pyridyl)sulfonyl]-6-(3-fluoro-5-isobutoxy-phenyl)-2-[(4S)-2,2,4-trimethylpyrrolidin-1-yl]pyridine-3-carboxamide based)): +++ (+++ is >60%)

Compound: Cc1cccc(C)c1-c1cc2nc(n1)NS(=O)(=O)c1cccc(c1)CN1CC(CN(C(=O)OC(C)(C)C)CC1=O)O2 (centres unmarked) [Compound 77, tert-Butyl 12-(2,6-dimethylphenyl)-8,8,20-trioxo-15-oxa-8λ^6-thia-1,9,11,18,22-pentaazatetracyclo[14.4.1.13,7.110,14]tricosa-3(23),4,6,10,12,14(22)-hexaene-18-carboxylate]
- ring closure, isolated yield ([1]; from Cc1cccc(C)c1-c1cc(OC2CNC(=O)CN(C(=O)OC(C)(C)C)C2)nc(NS(=O)(=O)c2cccc(CBr)c2)n1, other bond, NaH, 19.7 mM, 0.0 °C, 0.5 h): 68%
- Ent. A Max Activity (%) ([2]; Enteroid Assay A): ++ (++ is 30-60%)
- EC50 ([2]; Enteroid Assay A): < 1000 nM

Compound: Cc1cccc(C)c1-c1cc2nc(n1)NS(=O)(=O)c1cccc(c1)C(=O)N1CCN(Cc3ccccc3)C[C@@H](O2)[C@H]1CC(C)C [Compound 84, (16R,21R)-18-Benzyl-12-(2,6-dimethylphenyl)-21-(2-methylpropyl)-15-oxa-8λ^6-thia-1,9,11,18,22-pentaazatetracyclo[14.4.1.13,7.110,14]tricosa-3(23),4,6,10,12,14(22)-hexaene-2,8,8-trione]
- ring closure, isolated yield ([1]; from Cc1cccc(C)c1-c1cc(Cl)nc(NS(=O)(=O)c2cccc(C(=O)N3CCN(Cc4ccccc4)C[C@H](O)[C@H]3CC(C)C)c2)n1, snar bond, NaH, 16.6 mM, 25.0 °C, 72.0 h): 35%
- Ent. A Max Activity (%) ([2]; Enteroid Assay A): +++ (+++ is >600%)
- EC50 ([2]; Enteroid Assay A): < 1000 nM

Compound: Cc1cccc(C)c1-c1cc2nc(n1)NS(=O)(=O)c1cccc(c1)C(=O)N1CCN(Cc3ccccc3)C[C@H](O2)[C@H]1CC(C)C [Compound 86, (16S,21R)-18-Benzyl-12-(2,6-dimethylphenyl)-21-(2-methylpropyl)-15-oxa-8λ^6-thia-1,9,11,18,22-pentaazatetracyclo[14.4.1.13,7.110,14]tricosa-3(23),4,6,10(22),11,13-hexaene-2,8,8-trione]
- ring closure, isolated yield ([1]; from Cc1cccc(C)c1-c1cc(Cl)nc(NS(=O)(=O)c2cccc(C(=O)N3CCN(Cc4ccccc4)C[C@@H](O)[C@H]3CC(C)C)c2)n1, snar bond, NaH, 16.5 mM, 25.0 °C, 17.0 h): 5%
- Ent. A Max Activity (%) ([2]; Enteroid Assay A): +++ (+++ is >600%)
- EC50 ([2]; Enteroid Assay A): < 1000 nM

Compound: Cc1cccc(C)c1-c1cc2nc(n1)NS(=O)(=O)c1cccc(c1)C(=O)N1C[C@@H](CN(C(=O)OC(C)(C)C)C[C@@H]1CC(C)C)O2 [Compound 96, tert-Butyl (16S,20S)-12-(2,6-dimethylphenyl)-20-(2-methylpropyl)-2,8,8-trioxo-15-oxa-8λ^6-thia-1,9,11,18,22-pentaazatetracyclo[14.4.1.13,7.110,14]tricosa-3(23),4,6,10(22),11,13-hexaene-18-carboxylate]
- ring closure, isolated yield ([1]; from Cc1cccc(C)c1-c1cc(Cl)nc(NS(=O)(=O)c2cccc(C(=O)N3C[C@H](O)CN(C(=O)OC(C)(C)C)C[C@@H]3CC(C)C)c2)n1, snar bond, NaH, 29.2 mM, 25.0 °C, 5.08 h): 66%
- Ent. A Max Activity (%) ([2]; Enteroid Assay A): ++ (++ is 30-60%)
- EC50 ([2]; Enteroid Assay A): < 1000 nM

Compound: Cc1cccc(C)c1-c1cc2nc(n1)NS(=O)(=O)c1cccc(c1)C(=O)N1C[C@H](CN(C(=O)OC(C)(C)C)C[C@@H]1CC(C)C)O2 [Compound 100, tert-Butyl (16R,20S)-12-(2,6-dimethylphenyl)-20-(2-methylpropyl)-2,8,8-trioxo-15-oxa-8λ^6-thia-1,9,11,18,22-pentaazatetracyclo[14.4.1.13,7.110,14]tricosa-3(23),4,6,10(22),11,13-hexaene-18-carboxylate]
- ring closure, isolated yield ([1]; from Cc1cccc(C)c1-c1cc(Cl)nc(NS(=O)(=O)c2cccc(C(=O)N3CC(O)CN(C(=O)OC(C)(C)C)C[C@@H]3CC(C)C)c2)n1, snar bond, NaH, 31.2 mM, 25.0 °C, 3.08 h): 35%
- Ent. A Max Activity (%) ([2]; Enteroid Assay A): + (+ is <30%)

Compound: Cc1cccc(C)c1-c1cc2nc(n1)NS(=O)(=O)c1cccc(c1)C(=O)N1C[C@@H](CN(C(=O)OC(C)(C)C)C[C@H]1CC(C)C)O2 [Compound 102, tert-Butyl (16S,20R)-12-(2,6-dimethylphenyl)-20-(2-methylpropyl)-2,8,8-trioxo-15-oxa-8λ^6-thia-1,9,11,18,22-pentaazatetracyclo[14.4.1.13,7.110,14]tricosa-3(23),4,6,10(22),11,13-hexaene-18-carboxylate]
- ring closure, isolated yield ([1]; from Cc1cccc(C)c1-c1cc(Cl)nc(NS(=O)(=O)c2cccc(C(=O)N3C[C@H](O)CN(C(=O)OC(C)(C)C)C[C@H]3CC(C)C)c2)n1, snar bond, NaH, 30.8 mM, 4.17 h): 34%
- Ent. A Max Activity (%) ([2]; Enteroid Assay A): ++ (++ is 30-60%)
- EC50 ([2]; Enteroid Assay A): < 1000 nM

Compound: Cc1cccc(C)c1-c1cc2nc(n1)NS(=O)(=O)c1cccc(c1)C(=O)N1C[C@H](CN(C(=O)OC(C)(C)C)C[C@H]1CC(C)C)O2 [Compound 106, tert-Butyl (16R,20R)-12-(2,6-dimethylphenyl)-20-(2-methylpropyl)-2,8,8-trioxo-15-oxa-8λ^6-thia-1,9,11,18,22-pentaazatetracyclo[14.4.1.13,7.110,14]tricosa-3(23),4,6,10(22),11,13-hexaene-18-carboxylate]
- ring closure, isolated yield ([1]; from Cc1cccc(C)c1-c1cc(Cl)nc(NS(=O)(=O)c2cccc(C(=O)N3C[C@@H](O)CN(C(=O)OC(C)(C)C)C[C@H]3CC(C)C)c2)n1, snar bond, NaH, 31.3 mM, 2.17 h): 45%
- Ent. A Max Activity (%) ([2]; Enteroid Assay A): + (+ is <30%)

Compound: Cc1cccc(C)c1-c1cc2nc(n1)NS(=O)(=O)c1cccc(c1)C(=O)N1C[C@@H](CN(Cc3ccccc3)[C@@H](CC(C)C)C1)O2 [Compound 109, (16R,19S)-18-Benzyl-12-(2,6-dimethylphenyl)-19-(2-methylpropyl)-15-oxa-8λ^6-thia-1,9,11,18,22-pentaazatetracyclo[14.4.1.13,7.110,14]tricosa-3(23),4,6,10(22),11,13-hexaene-2,8,8-trione]
- ring closure, isolated yield ([1]; from Cc1cccc(C)c1-c1cc(Cl)nc(NS(=O)(=O)c2cccc(C(=O)N3CC(O)CN(Cc4ccccc4)[C@@H](CC(C)C)C3)c2)n1, snar bond, NaH, 30.0 mM, 0.0 °C, 7.0 h): 28%
- Ent. A Max Activity (%) ([2]; Enteroid Assay A): +++ (+++ is >600%)
- EC50 ([2]; Enteroid Assay A): < 1000 nM

Compound: Cc1cccc(C)c1-c1cc2nc(n1)NS(=O)(=O)c1cccc(c1)C(=O)N1C[C@H](CN(Cc3ccccc3)[C@H](CC(C)C)C1)O2 [Compound 111, (16S,19R)-18-Benzyl-12-(2,6-dimethylphenyl)-19-(2-methylpropyl)-15-oxa-8λ^6-thia-1,9,11,18,22-pentaazatetracyclo[14.4.1.13,7.110,14]tricosa-3(23),4,6,10(22),11,13-hexaene-2,8,8-trione]
- ring closure, isolated yield ([1]; from Cc1cccc(C)c1-c1cc(Cl)nc(NS(=O)(=O)c2cccc(C(=O)N3C[C@@H](O)CN(Cc4ccccc4)[C@H](CC(C)C)C3)c2)n1, snar bond, NaH, 28.6 mM, 4.6 h): 57%
- Ent. A Max Activity (%) ([2]; Enteroid Assay A): + (+ is <30%)
